Experimental findings from US5658880A, “Sialic acid/fucose based medicaments” (Glycomed Incorporated, priority 1994, dated 1997) are described below.

Each structure is given as a SMILES string. A value given as a limit tells only on which side of the number the result lay.

The subject of one assay is E-selectin. In words: ELISA: inhibition of E-selectin-IgG chimera binding to 2,3 sLe^x glycolipid. Also on record: species or system human. The source says:
(§1) An ELISA assay is preferably used that employs recombinant fusion proteins composed of extracellular portions of the human selectins joined to human immunoglobulin heavy chain CH3, CH2, and hinge regions. See, for example, Walz et al., Science (1990) 250:1132; Aruffo et al., Cell (1991) 67:35; Aruffo et al., Proc. Natl. Acad. Sci. USA. (1992) 89:2292. The assay is well known in the art, and generally consists of the following three steps:
(§2) I. 2,3 sLe^x glycolipid (25 picomole/well) was transferred into microtiter wells as solutions and then evaporated off. Excess, which remained unattached, was washed off with water. The wells were then blocked with 5% BSA at room temperature for an hour and then washed with PBS containing 1 mM calcium.
(§3) II. Preparation of "multivalent" receptor of the Selectin-lgG chimera was carried out by combining the respective chimera (1 μg/mL) with biotin labelled goat F(ab')2 anti-human IgG (Fc specific) and streptavidin-alkaline phosphatase diluted 1:1000 in 1% BSA-PBS (1 mM calcium) and incubating at 37° C. for 15 min. This allowed the soluble multivalent receptor complex to form. III. Potential inhibitors such as the compounds of formula I or II were allowed to react with the soluble receptor at 37° C. for 45 min. This test assumes that optimal binding, between the soluble phase receptor complex and the inhibitor (non natural ligand), would have occurred within this time frame. This solution was then placed in the microtiter wells that were prepared in step I. The plate was incubated at 37° C. for 45 minutes to allow the soluble receptor to bind to its natural ligand. In the presence of a strong inhibitor only a few receptors should be free to bind to the microtiter plate coated with the natural ligand.
(§4) The positive control is the signal produced by the soluble receptor when it is allowed to react with 2,3 sLe^x glycolipid in the microtiter wells in the absence of any inhibitor. This positive control was considered 100% binding. The signal produced by the receptor that had been previously treated with an inhibitor (recorded as O.D.), was divided by the signal produced by the positive control and multiplied by 100 to calculate the % receptor bound to the well in the presence of the inhibitor. The reciprocal of this number is the % inhibition.
(§5) An ELISA assay was employed that uses recombinant fusion proteins composed of extracellular portions of the human selectins joined to human immunoglobulin heavy chain CH3, CH2, and hinge regions. See, for example, Walz et al., Science (1990) 250:1132; Aruffo et al., Cell (1991) 67:35; Aruffo et al., Proc. Natl. Acad. Sci. USA (1992) 89:2292. The assay is well known in the art, and generally consists of the following three steps:
(§6) II. Preparation of "multivalent" receptor of the Selectin-IgG chimera was carried out by combining the respective chimera 1 μg/ml) with biotin labelled goat F(ab')2 anti-human IgG (Fc specific) and streptavidin-alkaline phosphatase diluted 1:1000 in 1% BSA-PBS (1 mM calcium) and incubating at 37° C. for 15 min. This allowed the soluble multivalent receptor complex to form.
(§7) III. Potential inhibitors such as compounds of formula I or II were allowed to react with the soluble receptor at 37° C. for 45 min. This test assumes that optimal binding, between the soluble phase receptor complex and the inhibitor (non natural ligand), would have occurred within this time frame. This solution was then placed in the microtiter wells that were prepared in step I. The plate was incubated at 37° C. for 45 minutes to allow the soluble receptor to bind to its natural ligand. In the presence of a strong inhibitor only a few receptors should be free to bind to the microtiter plate coated with the natural ligand.
(§8) The positive control is the signal produced by the soluble receptor when it is allowed to react with 2,3 sLe^x glycolipid in the microtiter wells in the absence of any inhibitor. This was considered 100% binding. […]
(In an ELISA, binding on a coated surface is turned into a signal by an enzyme label.)

For the next assay, the system named is L-selectin. The experiment in a line: ELISA: inhibition of L-selectin-IgG chimera binding to 2,3 sLe^x glycolipid. More on the design: species or system human.
Description: as §1, §2, §3, §4, §5, §6, §7, §8

A further assay deals with P-selectin. The experiment in a line: ELISA: inhibition of P-selectin-IgG chimera binding to 2,3 sLe^x glycolipid. Also on record: species or system human. The settings on record: inhibition of binding to 2,3 sLex glycolipid.
Description: as §1, §2, §3, §4, §5, §6, §7, §8

For assay [1], the system named is neutrophil migration into the peritoneum. The experiment in a line: Murine thioglycollate induced peritonitis: neutrophil migration to the peritoneal cavity. In kind it is in vivo, mouse (Swiss Webster). An excerpt: The efficaciousness of 7 and 10 was shown using a murine thioglycollate induced peritonitis model. The assay materials and methods are known in the art, or are generally described by Lewinsohn, D. et al., J. Immun., 138:4313-4321 (1987), or Watson, S. et al., Nature 349:164-166 (1991). This assay measures the ability of the compounds to inhibit neutrophil migration to the peritoneal cavity, the migration being initiated by the presence of thioglycollate in the peritoneal cavity. Thioglycollate is a known and effective inflammatory agent that causes neutrophil migration into the mouse peritoneum when it is administered intraperitoneally. Lewinsohn, D. et al., J. Immun. (1987) 138:4313-4321. Briefly, female Swiss Webster mice weighing about 25 grams were injected in the tail vein with 200 μl of phosphate buffered saline (PBS) with or without the appropriate compound. The pH of the solutions was adjusted to neutrality by the addition of either NaOH or HCL and sterilized by filtration through a 0.2 μ filter. Immediately following injection with the appropriate compound or PBS, the mice were injected intraperitoneally with 1 ml of thioglycollate medium prepared as described by the manufacturer, BBL. Three hours following injection of the thioglycollate solution the mice were sacrificed by CO2 asphyxiation, and the number of cells in the peritoneum removed by lavage with 5 ml of heparinized (5 U/ml) 0.9% sodium chloride solution containing 0.1% bovine serum albumin. Cell number was determined using a Coulter Counter. The cells were prepared for counting by diluting the lavage fluid with 1:50 of a commercial physiological isotonic solution, Isoton II, and the cells lysed by adding S/P Lysing and Hemoglobin Reagent (1:100 final dilution). Cell nuclei were counted in a sized window with lower and upper limits set at 3.9 and 5.7 μm, respectively.

[2] abbreviates: inhibition of binding to 2,3 sLex glycolipid.

Consider `CC(=O)NC1C(O)CC(OCCCCCCOC2OC(C)C(O)C(O)C2O)(C(=O)O)OC1C(O)C(O)CO` [Compound 7, 1-O-α-Neu5Ac-(6-O-α-L-Fucopyranosyl)-Hexane], for which the “inhibition of E-selectin binding to 2,3 sLe^x glycolipid” value in the assay with E-selectin (FIG. 4, result in words) is listed as “inhibit E-selectin binding to 2,3 sLe^x glycolipid”. The 50% inhibitory concentration (IC50) (in general, the point on the concentration scale where inhibition reaches its midpoint) is more than 4 mM in the assay on E-selectin (setting [2]), 1 to 3 mM in the assay with L-selectin (setting [2]) and more than 4 mM in the assay on P-selectin. Further, the “inhibition of L-selectin binding to 2,3 sLe^x glycolipid” value with L-selectin (FIG. 5 and FIG. 6, result in words) is given as “inhibit L-selectin binding in a concentration dependent manner”. Also, the “inhibited more neutrophil migration than 10” value in assay [1] (7 compared with 10, FIG. 7) is “about 30%”. Also, in assay [1] (mice, tail vein injection, 3 h after thioglycollate, FIG. 7(a) and (b)), the “inhibit neutrophil migration into the peritoneum” value is recorded as “inhibit neutrophil migration into the peritoneum”.
